Columns and labels:
Type in all cases: in vivo
[1] = test system: Italian ryegrass (Lolium multiflorum); assay: Test B pre-/postemergence plant response
In short: (§1)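 Visual injury, 0–100 scale (100 = complete control), rated against controls after 13 to 15 days in greenhouse. Pre-emergence: seeds in loam/sand soil, treated at planting. Post-emergence: 1- to 4-leaf plants (2 to 18 cm) in peat/vermiculite medium. Compounds formulated in non-phytotoxic solvent with surfactant.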

[2] = test system: bermudagrass (Cynodon dactylon); assay: Test B pre-/postemergence plant response
In short: as §1

[3] = test system: blackgrass (Alopecurus myosuroides); assay: Test B pre-/postemergence plant response
In short: as §1

corn (Zea mays) = assay: Test B pre-/postemergence plant response
In short: as §1

[4] = test system: downy bromegrass (Bromus tectorum); assay: Test B pre-/postemergence plant response
In short: as §1

[5] = test system: giant foxtail (Setaria faberii); assay: Test B pre-/postemergence plant response
In short: as §1

[6] = test system: goosegrass (Eleusine indica); assay: Test B pre-/postemergence plant response
In short: as §1

[7] = test system: green foxtail (Setaria viridis); assay: Test B pre-/postemergence plant response
In short: as §1

[8] = test system: johnsongrass (Sorghum halepense); assay: Test B pre-/postemergence plant response
In short: as §1

[9] = test system: morningglory (Ipomoea coccinea); assay: Test B pre-/postemergence plant response
In short: as §1

[10] = test system: pigweed (Amaranthus retroflexus); assay: Test B pre-/postemergence plant response
In short: as §1

[11] = test system: ragweed (common ragweed, Ambrosia elatior); assay: Test B pre-/postemergence plant response
In short: as §1

soybean (Glycine max) = assay: Test B pre-/postemergence plant response
In short: as §1

[12] = test system: velvetleaf (Abutilon theophrasti); assay: Test B pre-/postemergence plant response
In short: as §1

[13] = test system: wheat (Triticum aestivum); assay: Test B pre-/postemergence plant response
In short: as §1

[14] = test system: canarygrass (Phalaris minor); assay: Test B postemergence plant response
In short: (§2)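 Visual ratings from 0 (no effect) to 100 (complete control), made against controls 13–15 days after treatment, kept in a greenhouse. Compounds were applied postemergence to potted plants at the 1- to 4-leaf stage (2–18 cm).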

[15] = test system: chickweed (Stellaria media); assay: Test B postemergence plant response
In short: as §2

[16] = test system: winter barley (Hordeum vulgare); assay: Test B postemergence plant response
In short: as §2

[17] = 62 g ai/ha, postemergence, 0 is no effect, 100 is complete control, 13 to 15 days

COCCn1c(-c2ccsc2)ncc(C(=O)C2=C(O)CCCC2=O)c1=O [Compound 97, 5-[(2-hydroxy-6-oxo-1-cyclohexen-1-yl)carbonyl]-3-(2-methoxyethyl)-2-(3-thienyl)-4(3H)-pyrimidinone] was tested, and the “Ryegrass, Italian plant response rating (0 to 100 scale)” value [1, 17] was 0, the pest or weed control at 31 g/ha ([1]; Lolium multiflorum, post-emergence, 31 g ai/ha, postemergence, scale 0 to 100, 0 is no effect, 100 is complete control, read-out: Plant response rating, Ryegrass, Italian) was 0% and the pest or weed control at 250 g/ha ([1]; Lolium multiflorum, post-emergence, Postemergence, 250 g ai/ha, scale 0 to 100 (0 no effect, 100 complete control), read-out: Plant response rating, Ryegrass, Italian) was 5%. For the same molecule, the “Bermudagrass plant response rating (0 to 100 scale)” value [2, 17] was 95, the pest or weed control at 31 g/ha ([2]; Cynodon dactylon, post-emergence, 31 g ai/ha, postemergence, scale 0 to 100, 0 is no effect, 100 is complete control, read-out: Plant response rating, Bermudagrass) was 95% and the pest or weed control at 125 g/ha ([2]; Cynodon dactylon, post-emergence, Postemergence, 125 g ai/ha, visual rating after 13 to 15 days, scale 0 (no effect) to 100 (complete control)) was 95%. The pest or weed control at 250 g/ha ([2]; Cynodon dactylon, post-emergence, Postemergence, 250 g ai/ha, scale 0 to 100 (0 no effect, 100 complete control), read-out: Plant response rating, Bermudagrass) was 98%, the “Blackgrass plant response rating (0 to 100 scale)” value [3, 17] was 20 and the pest or weed control at 31 g/ha ([3]; Alopecurus myosuroides, post-emergence, 360 h, 31 g ai/ha, postemergence, scale 0 to 100, 0 is no effect, 100 is complete control, read-out: Plant response rating, Blackgrass) was 5%. For the same molecule, the pest or weed control at 125 g/ha ([3]; Alopecurus myosuroides, post-emergence, 360 h, Postemergence, 125 g ai/ha, visual rating after 13 to 15 days, scale 0 (no effect) to 100 (complete control)) was 30%, the pest or weed control at 250 g/ha ([3]; Alopecurus myosuroides, post-emergence, 360 h, Postemergence, 250 g ai/ha, scale 0 to 100 (0 no effect, 100 complete control), read-out: Plant response rating, Blackgrass) was 50% and the “Corn plant response rating (0 to 100 scale)” value (corn (Zea mays); [17]) was 40. It also gave a Corn plant response rating (crop injury, 0 = no effect, 100 = complete kill) at 31 g/ha (corn (Zea mays); Zea mays, post-emergence, 31 g ai/ha, postemergence, scale 0 to 100, 0 is no effect, 100 is complete control) of 20%, a Corn plant response rating (crop injury, 0 = no effect, 100 = complete kill) at 125 g/ha (corn (Zea mays); Zea mays, post-emergence, Postemergence, 125 g ai/ha, visual rating after 13 to 15 days, scale 0 (no effect) to 100 (complete control)) of 60% and a Corn plant response rating (crop injury, 0 = no effect, 100 = complete kill) at 250 g/ha (corn (Zea mays); Zea mays, post-emergence, Postemergence, 250 g ai/ha, scale 0 to 100 (0 no effect, 100 complete control)) of 75%. For the same molecule, the “Bromegrass, Downy plant response rating (0 to 100 scale)” value [4, 17] was 0, the pest or weed control at 31 g/ha ([4]; Bromus tectorum, post-emergence, 31 g ai/ha, postemergence, scale 0 to 100, 0 is no effect, 100 is complete control, read-out: Plant response rating, Bromegrass, Downy) was 0% and the pest or weed control at 125 g/ha ([4]; Bromus tectorum, post-emergence, Postemergence, 125 g ai/ha, visual rating after 13 to 15 days, scale 0 (no effect) to 100 (complete control)) was 5%. For the same molecule, the pest or weed control at 250 g/ha ([4]; Bromus tectorum, post-emergence, Postemergence, 250 g ai/ha, scale 0 to 100 (0 no effect, 100 complete control), read-out: Plant response rating, Bromegrass, Downy) was 10%, the “Foxtail, Giant plant response rating (0 to 100 scale)” value [5, 17] was 75 and the pest or weed control at 31 g/ha ([5]; Setaria faberi, post-emergence, 31 g ai/ha, postemergence, scale 0 to 100, 0 is no effect, 100 is complete control, read-out: Plant response rating, Foxtail, Giant) was 60%. The pest or weed control at 250 g/ha ([5]; Setaria faberi, post-emergence, Postemergence, 250 g ai/ha, scale 0 to 100 (0 no effect, 100 complete control), read-out: Plant response rating, Foxtail, Giant) was 90%, the “Goosegrass plant response rating (0 to 100 scale)” value [6, 17] was 70 and the pest or weed control at 31 g/ha ([6]; Eleusine indica, post-emergence, 31 g ai/ha, postemergence, scale 0 to 100, 0 is no effect, 100 is complete control, read-out: Plant response rating, Goosegrass) was 60%. The pest or weed control at 250 g/ha ([6]; Eleusine indica, post-emergence, Postemergence, 250 g ai/ha, scale 0 to 100 (0 no effect, 100 complete control), read-out: Plant response rating, Goosegrass) was 98%, the “Foxtail, Green plant response rating (0 to 100 scale)” value [7, 17] was 85 and the pest or weed control at 31 g/ha ([7]; Setaria viridis, post-emergence, 31 g ai/ha, postemergence, scale 0 to 100, 0 is no effect, 100 is complete control, read-out: Plant response rating, Foxtail, Green) was 40%. For the same molecule, the pest or weed control at 250 g/ha ([7]; Setaria viridis, post-emergence, Postemergence, 250 g ai/ha, scale 0 to 100 (0 no effect, 100 complete control), read-out: Plant response rating, Foxtail, Green) was 95%, the “Johnsongrass plant response rating (0 to 100 scale)” value [8, 17] was 55 and the pest or weed control at 31 g/ha ([8]; Sorghum halepense, post-emergence, 31 g ai/ha, postemergence, scale 0 to 100, 0 is no effect, 100 is complete control, read-out: Plant response rating, Johnsongrass) was 15%. The pest or weed control at 250 g/ha ([8]; Sorghum halepense, post-emergence, Postemergence, 250 g ai/ha, scale 0 to 100 (0 no effect, 100 complete control), read-out: Plant response rating, Johnsongrass) was 85%, the “Morningglory plant response rating (0 to 100 scale)” value [9, 17] was 100 and the pest or weed control at 31 g/ha ([9]; Ipomoea, post-emergence, 31 g ai/ha, postemergence, scale 0 to 100, 0 is no effect, 100 is complete control, read-out: Plant response rating, Morningglory) was 100%. For the same molecule, the pest or weed control at 250 g/ha ([9]; Ipomoea, post-emergence, Postemergence, 250 g ai/ha, scale 0 to 100 (0 no effect, 100 complete control), read-out: Plant response rating, Morningglory) was 100%, the “Pigweed plant response rating (0 to 100 scale)” value [10, 17] was 100 and the pest or weed control at 31 g/ha ([10]; Amaranthus retroflexus, post-emergence, 31 g ai/ha, postemergence, scale 0 to 100, 0 is no effect, 100 is complete control, read-out: Plant response rating, Pigweed) was 95%. For the same molecule, the pest or weed control at 250 g/ha ([10]; Amaranthus retroflexus, post-emergence, Postemergence, 250 g ai/ha, scale 0 to 100 (0 no effect, 100 complete control), read-out: Plant response rating, Pigweed) was 100%, the “Ragweed plant response rating (0 to 100 scale)” value [11, 17] was 98 and the pest or weed control at 31 g/ha ([11]; Ambrosia artemisiifolia, post-emergence, 360 h, 31 g ai/ha, postemergence, scale 0 to 100, 0 is no effect, 100 is complete control, read-out: Plant response rating, Ragweed) was 85%. The pest or weed control at 250 g/ha ([11]; Ambrosia artemisiifolia, post-emergence, 360 h, Postemergence, 250 g ai/ha, scale 0 to 100 (0 no effect, 100 complete control), read-out: Plant response rating, Ragweed) was 100%, the “Soybean plant response rating (0 to 100 scale)” value (soybean (Glycine max); [17]) was 80 and the plant injury at 31 g/ha (soybean (Glycine max); Glycine max, post-emergence, 31 g ai/ha, postemergence, scale 0 to 100, 0 is no effect, 100 is complete control, read-out: Plant response rating, Soybean) was 70%. For the same molecule, the plant injury at 250 g/ha (soybean (Glycine max); Glycine max, post-emergence, Postemergence, 250 g ai/ha, scale 0 to 100 (0 no effect, 100 complete control), read-out: Plant response rating, Soybean) was 100%, the “Velvetleaf plant response rating (0 to 100 scale)” value [12, 17] was 100 and the pest or weed control at 31 g/ha ([12]; Abutilon theophrasti, post-emergence, 360 h, 31 g ai/ha, postemergence, scale 0 to 100, 0 is no effect, 100 is complete control, read-out: Plant response rating, Velvetleaf) was 100%. The pest or weed control at 250 g/ha ([12]; Abutilon theophrasti, post-emergence, 360 h, Postemergence, 250 g ai/ha, scale 0 to 100 (0 no effect, 100 complete control), read-out: Plant response rating, Velvetleaf) was 100%, the “Wheat plant response rating (0 to 100 scale)” value [13, 17] was 0 and the plant injury at 31 g/ha ([13]; Triticum aestivum, post-emergence, 31 g ai/ha, postemergence, scale 0 to 100, 0 is no effect, 100 is complete control, read-out: Plant response rating, Wheat) was 0%. For the same molecule, the plant injury at 250 g/ha ([13]; Triticum aestivum, post-emergence, Postemergence, 250 g ai/ha, scale 0 to 100 (0 no effect, 100 complete control), read-out: Plant response rating, Wheat) was 5%, the “Canarygrass plant response rating (0 to 100 scale)” value [14, 17] was 10 and the pest or weed control at 31 g/ha ([14]; Phalaris minor, post-emergence, 360 h, 31 g ai/ha, postemergence, scale 0 to 100, 0 is no effect, 100 is complete control, read-out: Plant response rating, Canarygrass) was 0%. For the same molecule, the pest or weed control at 125 g/ha ([14]; Phalaris minor, post-emergence, 360 h, Postemergence, 125 g ai/ha, visual rating after 13 to 15 days, scale 0 (no effect) to 100 (complete control)) was 10%, the pest or weed control at 250 g/ha ([14]; Phalaris minor, post-emergence, 360 h, Postemergence, 250 g ai/ha, scale 0 to 100 (0 no effect, 100 complete control), read-out: Plant response rating, Canarygrass) was 30% and the “Chickweed plant response rating (0 to 100 scale)” value [15, 17] was 100. For the same molecule, the pest or weed control at 31 g/ha ([15]; Stellaria media, post-emergence, 360 h, 31 g ai/ha, postemergence, scale 0 to 100, 0 is no effect, 100 is complete control, read-out: Plant response rating, Chickweed) was 95%, the pest or weed control at 125 g/ha ([15]; Stellaria media, post-emergence, 360 h, Postemergence, 125 g ai/ha, visual rating after 13 to 15 days, scale 0 (no effect) to 100 (complete control)) was 100% and the pest or weed control at 250 g/ha ([15]; Stellaria media, post-emergence, 360 h, Postemergence, 250 g ai/ha, scale 0 to 100 (0 no effect, 100 complete control), read-out: Plant response rating, Chickweed) was 100%. For the same molecule, the “Barley plant response rating (0 to 100 scale)” value [16, 17] was 0, the plant injury at 31 g/ha ([16]; Hordeum vulgare, post-emergence, 31 g ai/ha, postemergence, scale 0 to 100, 0 is no effect, 100 is complete control, read-out: Plant response rating, Barley) was 0% and the plant injury at 125 g/ha ([16]; Hordeum vulgare, post-emergence, Postemergence, 125 g ai/ha, visual rating after 13 to 15 days, scale 0 (no effect) to 100 (complete control)) was 0%. It also gave a plant injury at 250 g/ha ([16]; Hordeum vulgare, post-emergence, Postemergence, 250 g ai/ha, scale 0 to 100 (0 no effect, 100 complete control), read-out: Plant response rating, Barley) of 5%.

From patent publication US8952024B2, “Herbicidal pyrimidone derivatives” (E I du Pont de Nemours and Company, priority 2009, dated 2015)
